Source: ChEMBL document CHEMBL3885861, “Open TG-GATES”

Species: Rattus norvegicus
Experiment: Open TG-GATES - Regimen: Single
Type: toxicity, organism-based, Sprague-Dawley
Parameters: regimen Single, gender Male, age 6 weeks
Details: in vivo, po, 30 mg/kg, route gavage, dose level Low; for APTT / Bas / Eos / Fbg / Hb / Ht / Lym / MCH / MCHC / MCV / Mono / Neu / PT / Plat / RBC / Ret / WBC: tissue Blood; for KIDNEY_L / KIDNEY_R / KIDNEY_TOTAL: tissue Kidney; for LIVER: tissue Liver; for A/G / ALP / ALT / AST / BUN / CRE / Ca / Cl / DBIL / GLC / IP / K / LDH / Na / PL / RALB / TBIL / TC / TG / TP / gamma-GTP: tissue Plasma

SMILES: Cc1ccc(C)c(OCCCC(C)(C)C(=O)O)c1 [GEMFIBROZIL]
- TERMINAL_BW (3 h): 219.6 g
- APTT (3 h): 16 s
- Bas (3 h): 0%
- Eos (3 h): 0.6%
- Fbg (3 h): 282.6 mg/dL
- Hb (3 h): 14.2 g/dL
- Ht (3 h): 41%
- Lym (3 h): 79.2%
- MCH (3 h): 22.1 pg
- MCHC (3 h): 34.7%
- MCV (3 h): 63.6 fL
- Mono (3 h): 2.8%
- Neu (3 h): 16.6%
- PT (3 h): 12.4 s
- Plat (3 h): 113.5 x10_4/uL
- RBC (3 h): 644.2 x10_4/ul
- Ret (3 h): 7%
- WBC (3 h): 92.7 x10_2/uL
- KIDNEY_L (3 h): 0.9 g
- KIDNEY_R (3 h): 0.9 g
- KIDNEY_TOTAL (3 h): 1.8 g
- LIVER (3 h): 9.1 g
- A/G (3 h): 0.9
- ALP (3 h): 1552.4 IU/L
- ALT (3 h): 48.6 IU/L
- AST (3 h): 74.6 IU/L
- BUN (3 h): 11.6 mg/dL
- CRE (3 h): 0.2 mg/dL
- Ca (3 h): 11.2 mg/dL
- Cl (3 h): 106.8 meq/L
- DBIL (3 h): 0.046 mg/dL
- GLC (3 h): 181 mg/dL
- IP (3 h): 9.7 mg/dL
- K (3 h): 4 meq/L
- LDH (3 h): 60.8 IU/L
- Na (3 h): 141.6 meq/L
- PL (3 h): 156.2 mg/dL
- RALB (3 h): 2.6 g/dL
- TBIL (3 h): 0.048 mg/dL
- TC (3 h): 70 mg/dL
- TG (3 h): 141.4 mg/dL
- TP (3 h): 5.5 g/dL
- gamma-GTP (3 h): 1 IU/L
- TERMINAL_BW (6 h): 221.2 g
- APTT (6 h): 15.2 s
- Bas (6 h): 0%
- Eos (6 h): 0.6%
- Fbg (6 h): 335.6 mg/dL
- Hb (6 h): 14.3 g/dL
- Ht (6 h): 41.1%
- Lym (6 h): 78.6%
- MCH (6 h): 22.1 pg
- MCHC (6 h): 34.9%
- MCV (6 h): 63.4 fL
- Mono (6 h): 2.4%
- Neu (6 h): 17.6%
- PT (6 h): 12.3 s
- Plat (6 h): 122 x10_4/uL
- RBC (6 h): 649.2 x10_4/ul
- Ret (6 h): 6.8%
- WBC (6 h): 75.7 x10_2/uL
- KIDNEY_L (6 h): 1 g
- KIDNEY_R (6 h): 0.9 g
- KIDNEY_TOTAL (6 h): 1.9 g
- LIVER (6 h): 9.2 g
- A/G (6 h): 0.9
- ALP (6 h): 1429.6 IU/L
- ALT (6 h): 41 IU/L
- AST (6 h): 75 IU/L
- BUN (6 h): 10.4 mg/dL
- CRE (6 h): 0.2 mg/dL
- Ca (6 h): 11.3 mg/dL
- Cl (6 h): 107.2 meq/L
- DBIL (6 h): 0.044 mg/dL
- GLC (6 h): 188 mg/dL
- IP (6 h): 10.4 mg/dL
- K (6 h): 4.2 meq/L
- LDH (6 h): 60.6 IU/L
- Na (6 h): 142.2 meq/L
- PL (6 h): 150.4 mg/dL
- RALB (6 h): 2.7 g/dL
- TBIL (6 h): 0.054 mg/dL
- TC (6 h): 77.2 mg/dL
- TG (6 h): 90.2 mg/dL
- TP (6 h): 5.6 g/dL
- gamma-GTP (6 h): 1.6 IU/L
- TERMINAL_BW (9 h): 224 g
- APTT (9 h): 15 s
- Bas (9 h): 0%
- Eos (9 h): 0.8%
- Fbg (9 h): 313 mg/dL
- Hb (9 h): 13.8 g/dL
- Ht (9 h): 40.2%
- Lym (9 h): 76.8%
- MCH (9 h): 21.3 pg
- MCHC (9 h): 34.3%
- MCV (9 h): 62 fL
- Mono (9 h): 3.4%
- Neu (9 h): 18%
- PT (9 h): 12 s
- Plat (9 h): 106.6 x10_4/uL
- RBC (9 h): 649.2 x10_4/ul
- Ret (9 h): 7.1%
- WBC (9 h): 68.1 x10_2/uL
- KIDNEY_L (9 h): 0.9 g
- KIDNEY_R (9 h): 0.9 g
- KIDNEY_TOTAL (9 h): 1.9 g
- LIVER (9 h): 8.6 g
- A/G (9 h): 0.9
- ALP (9 h): 1676.4 IU/L
- ALT (9 h): 38 IU/L
- AST (9 h): 69.2 IU/L
- BUN (9 h): 11.8 mg/dL
- CRE (9 h): 0.2 mg/dL
- Ca (9 h): 10.9 mg/dL
- Cl (9 h): 107 meq/L
- DBIL (9 h): 0.046 mg/dL
- GLC (9 h): 189.2 mg/dL
- IP (9 h): 11.3 mg/dL
- K (9 h): 3.8 meq/L
- LDH (9 h): 52.8 IU/L
- Na (9 h): 143.4 meq/L
- PL (9 h): 147 mg/dL
- RALB (9 h): 2.6 g/dL
- TBIL (9 h): 0.05 mg/dL
- TC (9 h): 78.6 mg/dL
- TG (9 h): 66.4 mg/dL
- TP (9 h): 5.4 g/dL
- gamma-GTP (9 h): 1 IU/L
- TERMINAL_BW (24 h): 227.1 g
- APTT (24 h): 14.5 s
- Bas (24 h): 0%
- Eos (24 h): 1%
- Fbg (24 h): 284.8 mg/dL
- Hb (24 h): 13.8 g/dL
- Ht (24 h): 39.8%
- Lym (24 h): 75.6%
- MCH (24 h): 22.3 pg
- MCHC (24 h): 34.7%
- MCV (24 h): 64.3 fL
- Mono (24 h): 2.4%
- Neu (24 h): 20.6%
- PT (24 h): 12.1 s
- Plat (24 h): 112.3 x10_4/uL
- RBC (24 h): 620 x10_4/ul
- Ret (24 h): 7.1%
- WBC (24 h): 70.3 x10_2/uL
- KIDNEY_L (24 h): 1 g
- KIDNEY_R (24 h): 1 g
- KIDNEY_TOTAL (24 h): 2 g
- LIVER (24 h): 10.5 g
- A/G (24 h): 0.9
- ALP (24 h): 1729.6 IU/L
- ALT (24 h): 47.4 IU/L
- AST (24 h): 70.4 IU/L
- BUN (24 h): 16 mg/dL
- CRE (24 h): 0.2 mg/dL
- Ca (24 h): 11.3 mg/dL
- Cl (24 h): 106.4 meq/L
- DBIL (24 h): 0.044 mg/dL
- GLC (24 h): 191 mg/dL
- IP (24 h): 7.7 mg/dL
- K (24 h): 4.5 meq/L
- LDH (24 h): 63.6 IU/L
- Na (24 h): 142.2 meq/L
- PL (24 h): 137.6 mg/dL
- RALB (24 h): 2.7 g/dL
- TBIL (24 h): 0.036 mg/dL
- TC (24 h): 68.6 mg/dL
- TG (24 h): 100.6 mg/dL
- TP (24 h): 5.6 g/dL
- gamma-GTP (24 h): 0.8 IU/L
